# Measurements published in patent US11059832B2, “HPK1 inhibitors and methods of using same” (University Health Network, priority 2015, dated 2021).
# How the values were obtained:
# [1] = test system: SLP-76 serine 376 phosphorylation in α-CD3 stimulated Jurkat E6.1 cells; test: In vitro phosphorylation assay, SLP-76 Ser376 (immunoblot); type: cell-based; settings: Homo sapiens, 4 h pretreatment, substantive = >75% inhibition as estimated by immunoblot analysis, read-out: SLP76 S376 Phosphorylation Onset-Substantive* Inhibition
# Experimental: (§1) Jurkat E6.1 cells were obtained from American Type Culture Collection (ATCC, Manassas, Va.), and maintained according to the supplier's instructions. Cells were washed three times and starved in RPMI 1640 medium supplemented with 0.5% fetal calf serum for 18 h at 37° C. Serum starved cells were pretreated with the indicated concentration of inhibitor for 4 hours before stimulation with 10 μg/ml α-CD3 antibody (BioLegend, Inc., San Diego, Calif.) for 10 min at 37° C. The cells were washed once in phosphate-buffered saline (pH 7.4) containing 10 mm sodium pyrophosphate, 10 mm sodium fluoride, 10 mm EDTA, and 1 mm sodium orthovanadate. Protein lysates were prepared using ice-cold radioimmunoprecipitation assay (RIPA) lysis buffer. A total of 100 μg of cell lysate was loaded onto Bis-Tris gels (Life Technologies, Carlsbad, Calif.) with full-range molecular weight marker as a size reference, and resolved by SDS-PAGE electrophoresis. Proteins were transferred to PVDF membrane (Millipore, Billerica, Mass.), blocked and probed with antibodies for phospho-SLP-76 (Ser376) (rabbit polyclonal #13177; Cell Signaling Technology Inc., Danvers, Mass.), SLP-76 (rabbit polyclonal #4958; Cell Signaling Technology Inc., Danvers, Mass.), phospho-ERK (mouse monoclonal sc-7383; Santa Cruz Biotechnology Inc., Santa Cruz, Calif.) and ERK1/2 (rabbit polyclonal 06-182; Millipore, Billerica, Mass.). Secondary antibodies were diluted 1 in 15,000 and incubated for 1 h at rt. Protein bands were visualized and quantified using Odyssey near infrared imager (LI-COR, Lincoln, Nebr.).
# (§2) Table 2 below lists effects of representative compounds of the present invention against SLP-76 serine 376 phosphorylation and ERK1/2 T202/Y204 phosphorylation in α-CD3 stimulated Jurkat E6.1 cells.
# [2] = test system: ERK1/2 T202/Y204 phosphorylation in α-CD3 stimulated Jurkat E6.1 cells; test: In vitro phosphorylation assay, ERK1/2 T202/Y204 (immunoblot); type: cell-based; settings: Homo sapiens, 4 h pretreatment, read-out: ERK1/2 T202/Y204 Phosphorylation Onset Inhibition
# Experimental: as §1, §2
# LCK = biological target: T1, LCK (Homo sapiens, UniProt P06239); test: LCK inhibition, FRET based Z'-LYTE Kinase Assay; type: biochemical; settings: 25 nM LCK, 180 μM ATP; read-out: IC50 Range Lck
# T1 construct: purchased Invitrogen P3043
# T1 sequence (P06239 whole entry, species assumed): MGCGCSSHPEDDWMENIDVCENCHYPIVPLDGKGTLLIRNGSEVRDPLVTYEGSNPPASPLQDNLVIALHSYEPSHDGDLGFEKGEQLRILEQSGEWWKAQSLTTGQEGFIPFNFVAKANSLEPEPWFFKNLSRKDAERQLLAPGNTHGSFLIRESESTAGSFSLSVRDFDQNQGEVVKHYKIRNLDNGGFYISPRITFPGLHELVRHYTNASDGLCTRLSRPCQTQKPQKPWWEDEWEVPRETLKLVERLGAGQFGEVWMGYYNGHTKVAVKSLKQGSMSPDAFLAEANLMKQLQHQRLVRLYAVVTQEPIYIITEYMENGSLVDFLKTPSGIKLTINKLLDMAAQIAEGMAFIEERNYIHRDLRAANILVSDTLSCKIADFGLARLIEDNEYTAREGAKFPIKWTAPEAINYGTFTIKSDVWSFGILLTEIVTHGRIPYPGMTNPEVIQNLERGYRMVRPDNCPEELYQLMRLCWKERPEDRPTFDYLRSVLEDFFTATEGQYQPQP
# Experimental: (§3) FLT3 and LCK compound inhibition were determined using FRET based Z′-LYTE Kinase Assay Kit with Tyrosine 2 peptide as the substrate (Invitrogen cat #PV3191). […] The % inhibition values were determined according to the manufacturer's directions and IC50 values were obtained using a non-linear 4 point logistic curve fit (XLfit4, IDBS).
# FLT3 = biological target: T2, FLT3 (Homo sapiens, UniProt P36888); test: FLT3 inhibition, FRET based Z'-LYTE Kinase Assay; type: biochemical; settings: 1 nM FLT3, 940 μM ATP; read-out: IC50 Range Flt3
# T2 construct: purchased Invitrogen PV3182
# T2 sequence (P36888 27-993): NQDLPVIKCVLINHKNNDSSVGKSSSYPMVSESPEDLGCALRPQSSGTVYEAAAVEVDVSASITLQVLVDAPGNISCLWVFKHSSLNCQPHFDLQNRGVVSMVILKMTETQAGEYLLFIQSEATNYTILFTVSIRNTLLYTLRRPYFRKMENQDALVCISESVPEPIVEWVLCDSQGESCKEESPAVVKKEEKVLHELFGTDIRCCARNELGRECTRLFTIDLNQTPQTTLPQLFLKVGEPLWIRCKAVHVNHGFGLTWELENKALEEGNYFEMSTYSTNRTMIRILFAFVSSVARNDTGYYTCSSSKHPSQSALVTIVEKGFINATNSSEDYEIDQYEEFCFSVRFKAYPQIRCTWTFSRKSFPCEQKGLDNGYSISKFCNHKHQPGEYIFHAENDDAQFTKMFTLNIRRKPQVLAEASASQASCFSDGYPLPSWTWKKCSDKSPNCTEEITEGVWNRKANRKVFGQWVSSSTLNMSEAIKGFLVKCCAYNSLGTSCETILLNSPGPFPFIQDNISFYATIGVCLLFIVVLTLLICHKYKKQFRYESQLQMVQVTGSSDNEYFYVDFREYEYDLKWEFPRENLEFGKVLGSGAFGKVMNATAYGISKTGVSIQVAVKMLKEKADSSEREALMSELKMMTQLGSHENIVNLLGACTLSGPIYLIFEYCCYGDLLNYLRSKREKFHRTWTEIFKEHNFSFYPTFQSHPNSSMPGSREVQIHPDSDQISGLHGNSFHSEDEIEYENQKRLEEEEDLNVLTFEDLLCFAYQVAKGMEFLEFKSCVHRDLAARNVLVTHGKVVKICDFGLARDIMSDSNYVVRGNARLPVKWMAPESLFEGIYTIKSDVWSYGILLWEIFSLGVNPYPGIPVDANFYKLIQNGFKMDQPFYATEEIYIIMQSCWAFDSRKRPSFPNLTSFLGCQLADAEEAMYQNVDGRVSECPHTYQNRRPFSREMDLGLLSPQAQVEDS
# Experimental: as §3
# CT26 WT colon carcinoma = test: Syngeneic CT26 cell line xenograft model; type: in vivo; settings: for Survival (tumour size <1500 mm^3 at day 21): 8 animals
# Experimental: Six to eight week old female BALB/c mice were purchased from Jackson Laboratories and received and acclimated at the MaRS-TMDT Animal Resources Centre for 1 week prior to the start of the experiment. […] Mice were housed in microisolator cages and maintained in an environment with a 12 h light cycle at 20-22° C. and 40-60% humidity. On the day of implantation, CT26 cells were harvested and re-suspended with serum free RPMI1640 to a concentration of 1×10^7/mL and each mouse was injected subcutaneously with a volume of 0.1 mL containing 1×10^6 CT26 cells in the right rear flank. […] Toxicity was evaluated by body weight measurements and clinical observations. Tumour measurements and body weights were taken three times per week.
# According to University Health Network (UHN) Animal Use Protocols (AUPs), mice in efficacy experiments should be sacrificed when the tumour size is above 1500 mm^3 or if the bodyweight of the animal decreases or if the animals are displaying clinical signs that require termination for humane reasons. […] A tumour size of <1500 mm^3 at day 21 was used as a cutoff to represent survival.
compound,measurement,setting,value
"CN1CCN(c2ccc3nc(-c4c(N)c5ccsc5[nH]c4=O)[nH]c3c2)CC1 [Example A1, 4-amino-5-(6-(4-methylpiperazin-1-yl)-1H-benzo[d]imidazol-2-yl)thieno[2,3-b]pyridin-6(7H)-one]",IC75,[1],300 to 1000 nM
same,minimal effective concentration,[2],> 3 µM
same,IC50,LCK,50 to 500 nM
same,IC50,FLT3,≤ 50 nM
same,Tumour growth inhibition (TGI),"CT26 WT colon carcinoma; 75 mg/kg QD PO for 21 days, day 21, BALB/c mice",44%
same,Survival (tumour size <1500 mm^3 at day 21),CT26 WT colon carcinoma; 75 mg/kg/day Example A1 arm,25%
same,Tumour growth inhibition (TGI),"CT26 WT colon carcinoma; 150 mg/kg QD PO Example A1 combined with 150 μg anti-PD-1 antibody IP day 0, 3, 6 and 10, day 21",86%
same,Tumour growth inhibition (TGI),"CT26 WT colon carcinoma; 150 mg/kg QD PO for 21 days, day 21, BALB/c mice",64%
same,Survival (tumour size <1500 mm^3 at day 21),CT26 WT colon carcinoma; 150 mg/kg/day Example A1 and anti-PD-1 arm,87.5%
same,Survival (tumour size <1500 mm^3 at day 21),CT26 WT colon carcinoma; 150 mg/kg/day Example A1 arm,37.5%
same,"Tolerability (body weight, clinical signs)","CT26 WT colon carcinoma; 75 and 150 mg/kg QD PO 21 days, BALB/c mice, all animals gaining weight, none terminated due to clinical signs",well tolerated
